Values after ≈ are worked out from the molar mass of the structure shown. “Also recorded” adds a separate entry of the source. Like-named read-outs stand apart in the source and are kept apart here. Residues, ends and D or L forms follow the SMILES beside them.
Assays:
[1] = test system: HEK cells; assay: Toxicity assay on the human cell line (MTT); format: cell-based; details: 100 to 0.78 μM peptide, 24 h, read at 595 nm, normalized to untreated cells; 3 biological repeats in triplicates
Experimental: HEK cells were grown at 37 °C with 5% CO2 in Deulbecco’s modifield Eagle’s medium (DMEM, Sigma) with 2 mM L-glutamine, 1% (v/v) penicillin and streptomycin (Penstrep), and 20% (v/v) fetal bovine serum. The day before the experiment, cells were detached by gentle scraping, counted with a hemocytometer to a concentration of 10^6 cells/mL, and seeded into a 96-well microplate (Nunc, Thermo Scientific). The following day, serial dilutions from 100 to 0.78 μM for each peptide were introduced to the cells with DMEM lacking phenol red for 24 h. Later, 50 μL of 3-(4,5-dimethylthiazol-2-yl)-2,5-diphenyltetrazolium bromide (MTT, 0.5 mg/mL) was added to the wells for 2 h of incubation. At the end, 100 μL of DMSO was added for 30 min at 37 °C and 200 rpm, and the plate was read at 595 nm and normalized to the untreated cells.
Peptide Concentration [µM] Peptide Concentration [µM]
Supplementary 3. Cytotoxicity examination. HEK cells were cultured in DMEM with L-glutamine, PenStrep, and fetal bovine serum at 37°C and 5% CO2. The day before the experiment, cells were detached, counted (10^6 cells/ml), and seeded into a 96-well plate. […] Cell viability was assessed using the MTT assay; after adding 50µl of MTT and incubating for 2 hours, 100µl DMSO was added for 30minutes at 37 °C, 200rpm. Next, absorbance was measured at 595nm and normalized to untreated controls. […]

[2] = target: chymotrypsin (Bos taurus, UniProt P00766); assay: Digestion examination of the peptides by chymotrypsin
Experimental: Peptides were dissolved in 1 mL of 100 μM NH4HCO3 to a final concentration of 4 mM, followed by the addition of 1 μL chymotrypsin (1 mg/mL), and were incubated at 37 °C and 150 rpm. At each time point, 75 μL of the solution was transferred to 90 °C for inactivation of the enzyme. After the peptides were frozen in liquid nitrogen and lyophilized, they were dissolved in DMSO and were analyzed in HPLC using Analytic Phenomenex Luna C18 (5 μm, 4.6 × 250 mm) with standard RP-HPLC conditions. The area under curve (AUC) was calculated at each time point and normalized to time = 0.
4 Peptide’s secondary structure and digestibility. (A) CD spectra of the peptides (50 μM) in DDW was measured using a J-1100 spectropolarimeter (Jasco), with the following parameters: wavelength range of 190–260 nm, bandwidth of 1 nm, data pitch of 0.1 nm, and three accumulations. A baseline spectrum was recorded using a 0.1 cm quartz cuvette filled with DDW and subtracted from the peptide spectrum to obtain the corrected CD spectrum. […] The area under the curve (AUC) was calculated at each time point and normalized to t = 0. The y axis ranges from 100%, meaning not digested at all, to 0%, meaning fully digested.

[3] = test system: E. coli
Experimental: (§1) A1163 was grown on potato dextrose agar (PDA) medium at 37 °C for 5 days, and then the conidia were scraped and suspended in PBS with 0.025% (v/v) Tween 20, counted using a hemocytometer, and kept at 4 °C. isolated from peanuts and Pe21 (both kindly provided by Dr. Edward Sionov, ARO, Israel) were grown on PDA medium at 25 °C for 5 days, and then the conidia were scraped and suspended in PBS with 0.025% Tween 20 and kept at 4 °C. RP and methicillin-resistant (MRSA) were grown on LB agar plates, and individual colonies were picked and grown in Mueller–Hinton (MH) broth overnight at 37 °C. was grown on PDA medium at 30 °C, and individual colonies were picked and grown in yeast extract peptone dextrose (YPD) media overnight at 30 °C. All fungal and bacteria strains were maintained at −80 °C in 50% (v/v) glycerol stock.
(§2) For filamentous fungi strains, serial dilutions of 100 μL ranged from 100 to 0.78 μM for each peptide in a 96 well plate using RPMI1640 with 165 μM MOPS. A total of 80 μL of inoculum was suspended with a conidia load of 5 × 10^3 CFU/mL (final density of 2 × 10^3 CFU/mL), and 20 μL of resazurin was diluted in RPMI1640 solution of 0.02% [final concentration of 0.0002% (w/v)]. In the control, 100 μL of treatment was replaced by the same volume with medium, while the negative control was 180 μL of the medium and 20 μL of resazurin solution. Plates were incubated at 37 °C for and 25 °C for and for 24 h. The results were quantified by measuring absorbance at 570 nm with a microplate reader (Tecan). The mean absorbance values were used in subsequent calculations. The growth of resazurin reduction and growth inhibition was calculated using the following normalization: % growth=100−% reduction=abs of test agent−abs of untreated control/abs of reduced resazurin−abs of untreated control The MIC was defined as the lowest concentration of the peptide that inhibited fungal growth by 90%, allowing for only 10% of the normal growth. For bacterial and yeast strains studies, serial dilutions of 100 μL ranged from 100 to 0.78 μM for each peptide in a 96 well plate using MH media for bacteria and YPD for yeast. A total of 100 μL of the microbe in suitable media (5 × 10^5 CFU/mL) was inoculated in each well. In the untreated well (e.g., control), 100 μL of treatment was replaced by the same volume with medium, while in the negative control, media were only without microbes and peptides. After 24 h of incubation at 37 °C for bacteria and 30 °C for yeast, plates were read at 595 nm and MIC was defined as the lowest concentration of peptide that reduced the growth of the microbe to 10% growth.

[4] = test system: A. fumigatus; details: 24 h
Experimental: as §1, §2

[5] = test system: P. expansum; details: 24 h
Experimental: as §1, §2

[6] = test system: MRSA
Experimental: as §1, §2

[7] = test system: A. Niger; details: 24 h
Experimental: as §1, §2

[8] = test system: filamentous fungi conidia (spores); assay: Fungicidal assay (CFU log reduction); format: cell-based; details: 8 μM H2O2
Experimental: A 10^4 CFU/mL conidia load was incubated in yeast extract (YE) medium at 37 °C for and 25 °C for and at 200 rpm for 4 h, and 100 μL was transferred to 900 μL of PBS with peptide (final conidia load = 10^3 CFU/mL). The negative control had no peptides, and for the positive control, we used H2O2 (final concentration of 8 μM). The treated conidia were incubated for an additional 4 h at the same temperature at 200 rpm. Once the second incubation was over, the inoculum suspension was diluted, and 100 μL of both the original and the dilution was spread on Petri plates with PDA with tetracycline (10 μg/mL) and chloramphenicol (25 μg/mL) medium to exclude the growth of bacteria. The plates were incubated at matching temperatures depending on the strain. After 48 h, the CFU/mL was calculated; CFU/mL = number of counted CFU × 10^–n (n = serial dilution).
2 Fungicidal activity of BP100 and P-113 and their derivatives. Spores were counted using a hemocytometer and diluted to […]. After 4 h of incubation with the selected peptides in two different concentrations (25 and 100 μM), samples were diluted and both original and diluted samples were plated. Colonies were counted after 48 h of incubation and are presented as the log reduction of CFU/mL. […] The experiments were repeated 3 times (biological repeats) in triplicate (average ± SEM). […]

[9] = MH media, 5 × 10^5 CFU/mL, 24 h at 37 °C, read at 595 nm, MIC = growth reduced to 10%, average ± SE, 3 biological repeats in triplicates
[10] = RPMI1640 with MOPS, resazurin, absorbance 570 nm, MIC = lowest concentration inhibiting growth by 90%, average ± SE, 3 biological repeats in triplicates

Row | SMILES | cytotoxicity against HEK mammalian cells (MTT assay) [1] | digestion by chymotrypsin [2] | MIC Values, E. coli [3, 9] [µM] | MIC Values, A. fumigatus [4, 10] [µM] | MIC Values, P. expansum [5, 10] [µM] | MIC Values, MRSA [6, 9] [µM] | MIC Values, A. Niger [7, 10] [µM] | fungicidal activity, positive control [8] | digestion by chymotrypsin ([2]; peptide 4 mM in 100 μM NH4HCO3, 1 μL chymotrypsin (1 mg/mL), 37 °C, 150 rpm, analytical RP-HPLC C18, AUC normalized to t = 0) | MIC Values, E. coli ([3]; 24 h) [µM] | MIC Values, A. fumigatus [4] [µM] | MIC Values, P. expansum [5] [µM] | MIC Values, MRSA ([6]; 24 h) [µM] | MIC Values, A. Niger [7] [µM]
1 | CC[C@H](C)[C@H](NC(=O)[C@H](CCCCN)NC(=O)[C@H](CCCCN)NC(=O)[C@H](Cc1ccccc1)NC(=O)[C@H](CC(C)C)NC(=O)[C@H](CCCCN)NC(=O)[C@@H](N)Cc1c[nH]c2ccccc12)C(=O)N[C@@H](CC(C)C)C(=O)N[C@@H](CCCCN)C(=O)N[C@@H](Cc1ccc(O)cc1)C(=O)N[C@@H](CC(C)C)C(N)=O [BP100 K1W] | low to no cytotoxicity | fully degraded within a short time frame | 2 ± 0 (≈ 2.96 µg/mL) | 8 ± 2 (≈ 11.8 µg/mL) | 6 ± 0 (≈ 8.87 µg/mL) | 3 ± 0 (≈ 4.44 µg/mL) | 10 ± 2 (≈ 14.8 µg/mL) |  |  |  |  |  |  | 
2 | CC[C@H](C)[C@H](NC(=O)[C@H](CCCCN)NC(=O)[C@H](CCCCN)NC(=O)[C@H](Cc1ccccc1)NC(=O)[C@H](CC(C)C)NC(=O)[C@H](CCCCN)NC(=O)[C@H](CCCCN)NC(=O)[C@H](CC(C)C)NC(=O)[C@H](Cc1ccc(O)cc1)NC(=O)[C@H](CCCCN)NC(=O)[C@H](CC(C)C)NC(=O)[C@@H](NC(=O)[C@H](CCCCN)NC(=O)[C@H](CCCCN)NC(=O)[C@H](Cc1ccccc1)NC(=O)[C@H](CC(C)C)NC(=O)[C@H](CCCCN)NC(=O)[C@H](CCCCN)NC(=O)[C@H](CC(C)C)NC(=O)[C@H](Cc1ccc(O)cc1)NC(=O)[C@H](CCCCN)NC(=O)[C@H](CC(C)C)NC(=O)[C@@H](NC(=O)[C@H](CCCCN)NC(=O)[C@H](CCCCN)NC(=O)[C@H](Cc1ccccc1)NC(=O)[C@H](CC(C)C)NC(=O)[C@H](CCCCN)NC(=O)[C@@H](N)CCCCN)[C@@H](C)CC)[C@@H](C)CC)C(=O)N[C@@H](CC(C)C)C(=O)N[C@@H](CCCCN)C(=O)N[C@@H](Cc1ccc(O)cc1)C(=O)N[C@@H](CC(C)C)C(N)=O [BP100 Triple] (H-KKLFKKILKYLKKLFKKILKYLKKLFKKILKYL-NH2) |  | less prone for digestions; also recorded: not digested | >200 | 42 ± 8.3 (≈ 178 µg/mL) | 83 ± 17 (≈ 351 µg/mL) | >200 | >200 |  |  |  |  |  |  | 
3 | OO [H2O2] |  |  |  |  |  |  |  | completely eradicated |  |  |  |  |  | 
4 | C[C@H](N)C(=O)N[C@@H](CCCCN)C(=O)N[C@@H](CCCNC(=N)N)C(=O)N[C@@H](Cc1c[nH]cn1)C(=O)N[C@@H](Cc1c[nH]cn1)C(=O)NCC(=O)N[C@@H](Cc1ccc(O)cc1)C(=O)N[C@@H](CCCCN)C(=O)N[C@@H](CCCNC(=N)N)C(=O)N[C@@H](CCCCN)C(=O)N[C@@H](Cc1ccccc1)C(=O)N[C@@H](Cc1c[nH]cn1)C(=O)N[C@@H](C)C(=O)N[C@@H](CCCCN)C(=O)N[C@@H](CCCNC(=N)N)C(=O)N[C@@H](Cc1c[nH]cn1)C(=O)N[C@@H](Cc1c[nH]cn1)C(=O)NCC(=O)N[C@@H](Cc1ccc(O)cc1)C(=O)N[C@@H](CCCCN)C(=O)N[C@@H](CCCNC(=N)N)C(=O)N[C@@H](CCCCN)C(=O)N[C@@H](Cc1ccccc1)C(=O)N[C@@H](Cc1c[nH]cn1)C(=O)N[C@@H](C)C(=O)N[C@@H](CCCCN)C(=O)N[C@@H](CCCNC(=N)N)C(=O)N[C@@H](Cc1c[nH]cn1)C(=O)N[C@@H](Cc1c[nH]cn1)C(=O)NCC(=O)N[C@@H](Cc1ccc(O)cc1)C(=O)N[C@@H](CCCCN)C(=O)N[C@@H](CCCNC(=N)N)C(=O)N[C@@H](CCCCN)C(=O)N[C@@H](Cc1ccccc1)C(=O)N[C@@H](Cc1c[nH]cn1)C(N)=O [P-113 Triple] (H-AKRHHGYKRKFHAKRHHGYKRKFHAKRHHGYKRKFH-NH2) | low to no cytotoxicity |  |  |  |  |  |  |  | fully degraded within a short time frame | 42 ± 14 (≈ 196 µg/mL) | 5 ± 2 (≈ 23.3 µg/mL) | 5 ± 2 (≈ 23.3 µg/mL) | 25 ± 0 (≈ 116 µg/mL) | 16 ± 4 (≈ 74.5 µg/mL)

— PMC12291464, “Modifying Antifungal Peptides as Safe Food Preservatives” (Journal of Agricultural and Food Chemistry, 2025)
